Patent EP4745138A1, “THIO-GLUTARIMIDO ISOINDOLINONE DERIVATIVE, BIFUNCTIONAL PROTEIN DEGRADER CONTAINING SAME, AND USES THEREOF” (Gluetacs Therapeutics (Shanghai) Co., Ltd., priority 2023, dated 2025)
Read-outs that look alike come from different tables or passages of the source.

Key:
[1] = molecular target: T1, human Cereblon WT GST-tagged protein (Homo sapiens, UniProt Q96SW2); assay: CRBN-binding affinity, HTRF (CEREBLON BINDING kit); conditions: for inhibition at 0.5 µM: read-out: Inhibition Rate at 0.5 µM (%); for inhibition at 2 µM: read-out: Inhibition Rate at 2 µM (%)
T1 construct: purchased CISBIO 64BDCRBNPEH
T1 sequence (Q96SW2 whole entry): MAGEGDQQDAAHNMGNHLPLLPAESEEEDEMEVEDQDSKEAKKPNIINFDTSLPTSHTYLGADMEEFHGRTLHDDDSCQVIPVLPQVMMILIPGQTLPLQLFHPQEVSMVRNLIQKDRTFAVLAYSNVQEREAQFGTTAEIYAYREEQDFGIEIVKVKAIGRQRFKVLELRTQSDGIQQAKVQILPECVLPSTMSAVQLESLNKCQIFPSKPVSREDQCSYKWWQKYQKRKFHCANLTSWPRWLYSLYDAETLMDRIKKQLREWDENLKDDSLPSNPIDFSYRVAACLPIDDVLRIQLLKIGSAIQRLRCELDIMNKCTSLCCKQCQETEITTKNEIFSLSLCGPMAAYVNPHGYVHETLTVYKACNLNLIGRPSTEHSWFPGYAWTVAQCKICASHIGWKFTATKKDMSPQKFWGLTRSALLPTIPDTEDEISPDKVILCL
From the text: The CEREBLON BINDING kits (specification: 10,000 tests; product number: Catalog # 64BDCRBNPEH; CISBIO company) was used to determine the CRBN binding ability of the compounds to be tested through a HTRF method (homogeneous time-resolved fluorescence). The specific methods are as follows: • 1. […] Specifically, diluent #9 (1X) solution was used as the diluent, and multiple concentration gradients were set. […] Into the 96-well plate, the diluted test compounds and corresponding detection reagents were added, resulting in final test compound concentrations of 2 µM and 0.5 µM, respectively. […] Then, 2.5 µL of human Cereblon WT GST-tagged protein solution was added to each well. Finally, 5 µL of the thoroughly mixed Thalidomide-Re reagent and GST Eu antibody working solution were added to each of the aforementioned wells. […] The blank control wells were sequentially added with 2.5 µL of diluent #9 (1X) solution, 2.5 µL of PROTAC binding buffer, and 5 µL of thoroughly mixed Thalidomide-Re reagent and GST Eu antibody working solution. • 4.

MV-4-11 = assay: Tumor cell proliferation inhibition (CellTiter-Meiluncell Luminescent Cell Viability Assay); type: cell-based; conditions: Homo sapiens, 96 hours; for inhibition at 0.01 µM: MV4-11, 10 nM, read-out: Inhibition Rate at 10 nM (%); for inhibition at 0.5 µM: MV4-11, 500 nM, read-out: Inhibition Rate at 500 nM (%)
Procedure: The tumor cells used herein were cultured in a cell culture medium listed in table 3 at 37°C in an incubator with 5% CO2. Prior to experimentation, all cell lines used were correctly identified by STR profiling, and tested negative for mycoplasma contamination using a mycoplasma detection kit through routine screenings. Table 3. Tumor cells and cell culture medium used in the present disclosure
The IC50 values of the compounds of the present disclosure (including the compounds in Table 1, Table 2, and Examples) were determined using the CellTiter-Meiluncell Luminescent Cell Viability Assay Kit from Dalian Meilun Biotech Co., Ltd. The detailed procedure is as follows: Tumor cells were seeded in 96-well cell culture plates at the densities specified in Table 4. On the following day, the test compounds of the present disclosure were subjected to serial dilution. […] Subsequently, 0.5 µL of the test compound dilution was transferred into the 96-well plate containing the cells, with each well containing 100 µL of cell culture medium. […] Into the 96-well plate, the diluted test compounds and corresponding detection reagents were added, resulting in final test compound concentrations of 500 nM and 10 nM, respectively. The experimental procedure is described below using the diluted 2 µM test compound as an example.
0.5 µL of the aforementioned diluted compound of the present disclosure (including the compounds in Table 1, Table 2, and Examples) was added to the seeded cells in 100 µL of medium, yielding a final test compound concentration of 10 nM. After the cells were treated with the compounds of the present disclosure for a specified period, the cell viability assay reagent was added to the culture medium according to the kit's instructions to determine cell viability. […] All controls were treated using the same procedure as the compounds of the present disclosure. […] Seeding protocol and treatment time for tumor cells

[2] = Table I-8, SMARCA2/4 inhibitors

SMILES | inhibition at 0.5 µM [1] | inhibition at 2 µM [1] | inhibition at 0.01 µM (MV-4-11; Table I-3, EGFR inhibitors) | inhibition at 0.5 µM (MV-4-11; Table I-3, EGFR inhibitors) | inhibition at 0.01 µM (MV-4-11; Table I-6, IRAK4 inhibitors) | inhibition at 0.5 µM (MV-4-11; Table I-6, IRAK4 inhibitors) | also measured
COc1cc2nn(C3CCN(Cc4ccc5c(c4)CN(C4CCC(=O)NC4=O)C5=S)CC3)cc2cc1NC(=O)c1cccc(C(F)(F)F)n1 (centres unmarked) [GT-05296, N-(2-(1-((2-(2,6-dioxopiperidin-3-yl)-1-thioxoisoindolin-5-yl)methyl)piperidin-4-yl)-6-methoxy-2H-indazol-5-yl)-6-(trifluoromethyl)picolinamide] | 60 to 80% | 80 to 100% |  |  | 10 to 20% | 50 to 60% | 
O=C1CCC(N2Cc3cc(CN4CCN(c5ccc6c(c5)nc(NC(=O)c5cccc(C(F)(F)F)c5)n6[C@H]5CC[C@@H](CO)CC5)CC4)ccc3C2=S)C(=O)N1 (relative stereo) [GT-05293, N-(5-(4-((2-(2,6-dioxopiperidin-3-yl)-1-thioxoisoindolin-5-yl)methyl)piperazin-1-yl)-1-((1s,4s)-4-(hydroxymethyl)cyclohexyl)-1H-benzo[d]imidazol-2-yl)-3-(trifluoromethyl)benzamide] | 40 to 53% | 60 to 80% |  |  | 10 to 20% | 60 to 70% | 
Cc1cc(-c2nc(C(=O)Nc3cc4oc(N5CCN(Cc6ccc7c(c6)CN(C6CCC(=O)NC6=O)C7=S)CC5)nc4nc3N3CC[C@@H](O)C3)co2)ccn1 (stereo partly drawn) [GT-05322, N-(2-(4-((2-(2,6-dioxopiperidin-3-yl)-1-thioxoisoindolin-5-yl)methyl)piperazin-1-yl)-5-((R)-3-hydroxypyrrolidin-1-yl)oxazolo[4,5-b]pyridin-6-yl)-2-(2-methylpyridin-4-yl)oxazole-4-carboxamide] | 60 to 80% | 80 to 100% |  |  | 10 to 20% | 80 to 100% | 
Cc1cc(-c2nc(C(=O)Nc3cc4oc(N5CCN(Cc6cccc7c6CN(C6CCC(=O)NC6=O)C7=S)CC5)nc4nc3N3CC[C@@H](O)C3)co2)ccn1 (stereo partly drawn) [GT-05289, N-(2-(4-((2-(2,6-dioxopiperidin-3-yl)-1-thioxoisoindolin-4-yl)methyl)piperazin-1-yl)-5-((R)-3-hydroxypyrrolidin-1-yl)oxazolo[4,5-b]pyridin-6-yl)-2-(2-methylpyridin-4-yl)oxazole-4-carboxamide] | 40 to 53% | 60 to 80% |  |  | 5 to 10% | 70 to 80% | 
Cc1cc(S(=O)(=O)N2CCN(Cc3cccc4c3CN(C3CCC(=O)NC3=O)C4=S)CC2)ccc1Nc1ncc(Br)c(Nc2cccc(F)c2C(N)=O)n1 (centres unmarked) [GT-08793, 2-((5-bromo-2-((4-((4-((2-(2,6-dioxopiperidin-3-yl)-1-thioxoisoindolin-4-yl)methyl)piperazin-1-yl)sulfonyl)-2-methylphenyl)amino)pyrimidin-4-yl)amino)-6-fluorobenzamide] |  |  |  |  |  |  | inhibition at 0.01 µM (MV-4-11; Table I-13, CDK2 inhibitors): 30 to 40%; inhibition at 0.5 µM (MV-4-11; Table I-13, CDK2 inhibitors): 60 to 70%
O=C1CCC(N2Cc3c(CN4CCC(n5cc(NC(=O)c6cnn7ccc(N8C[C@H]9C[C@@H]8CO9)nc67)c(C(F)F)n5)CC4)cccc3C2=S)C(=O)N1 (stereo partly drawn) [GT-05288, 5-((1R,4R)-2-oxa-5-azabicyclo[2.2.1]heptan-5-yl)-N-(3-(difluoromethyl)-1-(1-((2-(2,6-dioxopiperidin-3-yl)-1-thioxoisoindolin-4-yl)methyl)piperidin-4-yl)-1H-pyrazol-4-yl)pyrazolo[1,5-a]pyrimidine-3-carboxamide] | 53 to 60% | 80 to 100% |  |  | 0 to 5% | 40 to 50% | 

Second part, led by results:

inhibition at 0.5 µM [1] | inhibition at 2 µM [1] | SMILES | inhibition at 0.01 µM (MV-4-11; Table I-3, EGFR inhibitors) | inhibition at 0.5 µM (MV-4-11; Table I-3, EGFR inhibitors) | inhibition at 0.01 µM (MV-4-11; Table I-6, IRAK4 inhibitors) | inhibition at 0.5 µM (MV-4-11; Table I-6, IRAK4 inhibitors) | also measured
53 to 60% | 60 to 80% | COc1cc(N2CCC(N(C)Cc3cccc4c3CN(C3CCC(=O)NC3=O)C4=S)CC2)c(C)cc1Nc1ncc(Br)c(Nc2ccc3nccnc3c2P(C)(C)=O)n1 (centres unmarked) [GT-08758, 3-(4-(((1-(4-((5-bromo-4-((5-(dimethylphosphoryl)quinoxalin-6-yl)amino)pyrimidin-2-yl)amino)-5-methoxy-2-methylphenyl)piperidin-4-yl)(methyl)amino)methyl)-1-thioxoisoindolin-2-yl)piperidine-2,6-dione] | 10 to 20% | 60 to 70% |  |  | 
53 to 60% | 80 to 100% | Nc1nnc(-c2ccccc2O)cc1N1CCN(Cc2cccc3c2CN(C2CCC(=O)NC2=O)C3=S)CC1 (centres unmarked) [GT-08786, 3-(4-((4-(3-amino-6-(2-hydroxyphenyl)pyridazin-4-yl)piperazin-1-yl)methyl)-1-thioxoisoindolin-2-yl)piperidine-2,6-dione] |  |  |  |  | inhibition at 0.01 µM (MV-4-11; [2]): 10 to 15%; inhibition at 0.5 µM (MV-4-11; [2]): 40 to 50%
80 to 100% | 80 to 100% | COc1cc(N2CCC(N(C)Cc3ccc4c(c3)CN(C3CCC(=O)NC3=O)C4=S)CC2)c(C)cc1Nc1ncc(Br)c(Nc2ccc3nccnc3c2P(C)(C)=O)n1 (centres unmarked) [GT-08754, 3-(5-(((1-(4-((5-bromo-4-((5-(dimethylphosphoryl)quinoxalin-6-yl)amino)pyrimidin-2-yl)amino)-5-methoxy-2-methylphenyl)piperidin-4-yl)(methyl)amino)methyl)-1-thioxoisoindolin-2-yl)piperidine-2,6-dione] | 10 to 20% | 70 to 80% |  |  | 
40 to 53% | 53 to 60% | Cc1ccsc1C(=O)n1nc(Nc2ccc(S(=O)(=O)N3CCN(Cc4cccc5c4CN(C4CCC(=O)NC4=O)C5=S)CC3)cc2)nc1N (centres unmarked) [GT-08797, 3-(4-((4-((4-((5-amino-1-(3-methylthiophene-2-carbonyl)-1H-1,2,4-triazol-3-yl)amino)phenyl)sulfony 1)piperazin-1-yl)methyl)-1-thioxoisoindolin-2-yl)piperidine-2,6-dione] |  |  |  |  | inhibition at 0.01 µM (MV-4-11; Table I-13, CDK2 inhibitors): 5 to 10%; inhibition at 0.5 µM (MV-4-11; Table I-13, CDK2 inhibitors): 60 to 70%
30 to 40% | 80 to 100% | COC1CCN(c2nccc(Nc3cc4c(cn3)c(N3CCN(Cc5ccc6c(c5)CN(C5CCC(=O)NC5=O)C6=S)CC3)nn4C(C)C)n2)CC1 (centres unmarked) [GT-08756, 3-(5-((4-(1-isopropyl-6-((2-(4-methoxypiperidin-1-yl)pyrimidin-4-yl)amino)-1H-pyrazolo[4,3-c]pyridin-3-yl)piperazin-1-yl)methyl)-1-thioxoisoindolin-2-yl)piperidine-2,6-dione] | 5 to 10% | 40 to 50% |  |  | 
40 to 53% | 80 to 100% | Cn1ncc(-c2nc(NC3CCN(Cc4ccc5c(c4)C(=S)N(C4CCC(=O)NC4=O)C5)CC3)ncc2Cl)c1CC1CC1 (centres unmarked) [GT-08751, 3-(6-((4-((5-chloro-4-(5-(cyclopropylmethyl)-1-methyl-1H-pyrazol-4-yl)pyrimidin-2-yl)amino)piperidin-1-yl)methyl)-1-thioxoisoindolin-2-yl)piperidine-2,6-dione] |  |  |  |  | inhibition at 0.01 µM (MV-4-11; Table I-7, CDK9 inhibitors): 10 to 20%; inhibition at 0.5 µM (MV-4-11; Table I-7, CDK9 inhibitors): 60 to 70%
80 to 100% | 80 to 100% | COc1cc(N2CCC(N3CCN(Cc4ccc5c(c4)CN(C4CCC(=O)NC4=O)C5=S)CC3)CC2)c(C)cc1Nc1ncc(Br)c(Nc2ccc3nccnc3c2P(C)(C)=O)n1 (centres unmarked) [GT-08755, 3-(5-((4-(1-(4-((5-bromo-4-((5-(dimethylphosphoryl)quinoxalin-6-yl)amino)pyrimidin-2-yl)amino)-5-methoxy-2-methylphenyl)piperidin-4-yl)piperazin-1-yl)methyl)-1-thioxoisoindolin-2-yl)piperidine-2,6-dione] | 20 to 30% | 70 to 80% |  |  | 
